Test [1] relates to CUG RNA foci in primary DM1 patient myoblasts / myotubes. As to the kind of experiment: FISH staining of CUG RNA foci (SpCas9 sgRNA pairs). In kind it is cell-based, human. The following applies: DM1 patient myotubes nucleofected with SpCas9 sgRNA pairs, Group 5 vs Group 6. The procedure:
Primary myoblasts were fixed for 15 min with 4% paraformaldehyde (PFA) and washed five times with 1×PBS for 10 min each at room temperature. Before staining, cells were permeabilized with 0.5% triton X-100 in 1×PBS for 5 min at room temperature, and then washed with 30% formamide and 2× saline-sodium citrate (SSC) mixture for 10 min at room temperature. Cells were then stained with 1 ng/μL of Cy3-PNA(CAG)5 probe (PNA Bio, F5001) diluted in 30% formamide, 2×SSC, 2 μg/mL BSA, 66 μg/mL yeast tRNA, and 2 mM vanadyl complex for 15 min at 80° C. Following probe staining, cells were then washed in 30% formamide and 2×SSC mixture for 30 min at 42° C., then washed in 30% formamide and 2×SSC mixture for 30 min at 37° C., and then washed in 1×SSC solution for 10 min at room temperature, and finally washed in 1×PBS for 10 min at room temperature. For staining of myotube nuclei, cells were stained with anti-Myogenin antibody diluted in 1% bovine serum albumin (BSA) for overnight at 4° C. and washed twice with 1×PBS for 10 min each at room temperature. Cells were then incubated with the secondary antibody goat anti-rabbit Alexa 647 (Thermo Fisher, A32728) diluted in 1% BSA for 1 hr at room temperature and washed twice with 1×PBS for 10 min each at room temperature. […] RNA foci quantifications were accomplished with a customized analysis module of the MetaXpress program (Molecular Devices). […]

The test system of test [2] is DMPK mRNA. Put plainly: DMPK mRNA expression by ddPCR (SaCas9/SluCas9 sgRNA pairs). In kind it is cell-based, human. The following applies: DM1 myotubes, 3 μM DNA-PKi Compound 6 for 48 h. The text has this:
mRNA of DM1 myotubes was isolated with the Kingfisher Flex purification system (Thermal Fisher) in 96-well format following the manufacturer's instruction. cDNA was synthesized with SuperScript™ IV VILO™ Master Mix with ezDNase™ Enzyme (Thermal Fisher) following mRNA isolation.
The primers and probes of ddPCR for hDMPK and GAPDH were pre-designed by Fisher Scientifics qPCR assays (Hs00266705_g1 and Hs01094329_m1). For DMPK expression, one target primer/probe set was used to detect DMPK expression levels, and one reference primer/probe set was used to detect GAPDH expression levels. The 24 μL of ddPCR reaction consisted of 12 μL of Supermix for Probes (no dUTP) (Bio-Rad Laboratories), 1 μL of Reference primers mix (21.6 μM), 1 μL of Reference probe (6 μM), 1 μL of Target primers mix (21.6 μM), 1 μL of Target probe (6 μM), 2 μL of H2O and 6 μL of sample genomic DNA. Droplets were generated using probe oil with the QX200 Droplet Generator (Bio-Rad Laboratories). […] The cycled plate was then transferred and read in the FAM and HEX channels using the Bio-Rad QX200 Droplet Reader (Bio-Rad Laboratories). ddPCR analysis was performed with the Bio-Rad QuantaSoft Pro Software. […]

Consider `Cc1ccnc(N[C@H]2CC[C@@H](Oc3cc(N4CCOCC4)cc4nonc34)CC2)n1` [Compound 6], for which the “foci-free myonuclei, DNA-PKi-treated versus vehicle-treated” value in test [1] is recorded as “substantially higher”. The “hDMPK mRNA reduction, DNA-Pki treatment group versus DMSO group” value in test [2] was “more dramatic hDMPK mRNA reduction”.
